Data set [1] has as its target CtSen1^FL (Thermochaetoides thermophila, UniProt G0S163). Put plainly: malachite green phosphate release ATPase assay. The data set is classed as biochemical. To be noted: 1 mM ATP, 2 mM MgCl2, pH 7.5, 37 °C, RNA-DNA Sub6 5 μM, 5 nM enzyme.
For data set [2], the target named is T1, CtSen1Hel-1878 (Chaetomium thermophilum, UniProt G0S163 1087-1878).
T1 sequence: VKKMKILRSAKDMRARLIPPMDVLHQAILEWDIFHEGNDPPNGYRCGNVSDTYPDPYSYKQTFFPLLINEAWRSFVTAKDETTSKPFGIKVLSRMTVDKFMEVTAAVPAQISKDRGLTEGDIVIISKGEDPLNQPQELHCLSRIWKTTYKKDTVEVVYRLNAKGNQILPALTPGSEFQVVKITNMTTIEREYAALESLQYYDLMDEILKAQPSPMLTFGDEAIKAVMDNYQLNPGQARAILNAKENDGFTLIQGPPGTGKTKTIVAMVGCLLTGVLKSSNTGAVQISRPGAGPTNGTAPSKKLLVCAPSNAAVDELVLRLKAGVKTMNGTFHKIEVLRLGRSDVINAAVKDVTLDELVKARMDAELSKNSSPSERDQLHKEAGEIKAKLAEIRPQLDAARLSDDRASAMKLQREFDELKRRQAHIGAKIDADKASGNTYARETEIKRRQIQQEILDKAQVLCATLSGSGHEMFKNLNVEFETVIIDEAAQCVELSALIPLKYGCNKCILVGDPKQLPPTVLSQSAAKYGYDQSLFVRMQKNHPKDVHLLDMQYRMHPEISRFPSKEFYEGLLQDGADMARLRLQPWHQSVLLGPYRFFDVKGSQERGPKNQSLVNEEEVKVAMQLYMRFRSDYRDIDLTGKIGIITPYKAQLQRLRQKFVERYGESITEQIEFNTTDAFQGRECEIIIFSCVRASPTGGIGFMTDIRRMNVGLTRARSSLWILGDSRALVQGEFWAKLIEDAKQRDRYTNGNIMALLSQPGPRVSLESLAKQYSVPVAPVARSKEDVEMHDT
In words: X-ray crystallography.

Chain of CtSen1^FL (G0S163 1-1993): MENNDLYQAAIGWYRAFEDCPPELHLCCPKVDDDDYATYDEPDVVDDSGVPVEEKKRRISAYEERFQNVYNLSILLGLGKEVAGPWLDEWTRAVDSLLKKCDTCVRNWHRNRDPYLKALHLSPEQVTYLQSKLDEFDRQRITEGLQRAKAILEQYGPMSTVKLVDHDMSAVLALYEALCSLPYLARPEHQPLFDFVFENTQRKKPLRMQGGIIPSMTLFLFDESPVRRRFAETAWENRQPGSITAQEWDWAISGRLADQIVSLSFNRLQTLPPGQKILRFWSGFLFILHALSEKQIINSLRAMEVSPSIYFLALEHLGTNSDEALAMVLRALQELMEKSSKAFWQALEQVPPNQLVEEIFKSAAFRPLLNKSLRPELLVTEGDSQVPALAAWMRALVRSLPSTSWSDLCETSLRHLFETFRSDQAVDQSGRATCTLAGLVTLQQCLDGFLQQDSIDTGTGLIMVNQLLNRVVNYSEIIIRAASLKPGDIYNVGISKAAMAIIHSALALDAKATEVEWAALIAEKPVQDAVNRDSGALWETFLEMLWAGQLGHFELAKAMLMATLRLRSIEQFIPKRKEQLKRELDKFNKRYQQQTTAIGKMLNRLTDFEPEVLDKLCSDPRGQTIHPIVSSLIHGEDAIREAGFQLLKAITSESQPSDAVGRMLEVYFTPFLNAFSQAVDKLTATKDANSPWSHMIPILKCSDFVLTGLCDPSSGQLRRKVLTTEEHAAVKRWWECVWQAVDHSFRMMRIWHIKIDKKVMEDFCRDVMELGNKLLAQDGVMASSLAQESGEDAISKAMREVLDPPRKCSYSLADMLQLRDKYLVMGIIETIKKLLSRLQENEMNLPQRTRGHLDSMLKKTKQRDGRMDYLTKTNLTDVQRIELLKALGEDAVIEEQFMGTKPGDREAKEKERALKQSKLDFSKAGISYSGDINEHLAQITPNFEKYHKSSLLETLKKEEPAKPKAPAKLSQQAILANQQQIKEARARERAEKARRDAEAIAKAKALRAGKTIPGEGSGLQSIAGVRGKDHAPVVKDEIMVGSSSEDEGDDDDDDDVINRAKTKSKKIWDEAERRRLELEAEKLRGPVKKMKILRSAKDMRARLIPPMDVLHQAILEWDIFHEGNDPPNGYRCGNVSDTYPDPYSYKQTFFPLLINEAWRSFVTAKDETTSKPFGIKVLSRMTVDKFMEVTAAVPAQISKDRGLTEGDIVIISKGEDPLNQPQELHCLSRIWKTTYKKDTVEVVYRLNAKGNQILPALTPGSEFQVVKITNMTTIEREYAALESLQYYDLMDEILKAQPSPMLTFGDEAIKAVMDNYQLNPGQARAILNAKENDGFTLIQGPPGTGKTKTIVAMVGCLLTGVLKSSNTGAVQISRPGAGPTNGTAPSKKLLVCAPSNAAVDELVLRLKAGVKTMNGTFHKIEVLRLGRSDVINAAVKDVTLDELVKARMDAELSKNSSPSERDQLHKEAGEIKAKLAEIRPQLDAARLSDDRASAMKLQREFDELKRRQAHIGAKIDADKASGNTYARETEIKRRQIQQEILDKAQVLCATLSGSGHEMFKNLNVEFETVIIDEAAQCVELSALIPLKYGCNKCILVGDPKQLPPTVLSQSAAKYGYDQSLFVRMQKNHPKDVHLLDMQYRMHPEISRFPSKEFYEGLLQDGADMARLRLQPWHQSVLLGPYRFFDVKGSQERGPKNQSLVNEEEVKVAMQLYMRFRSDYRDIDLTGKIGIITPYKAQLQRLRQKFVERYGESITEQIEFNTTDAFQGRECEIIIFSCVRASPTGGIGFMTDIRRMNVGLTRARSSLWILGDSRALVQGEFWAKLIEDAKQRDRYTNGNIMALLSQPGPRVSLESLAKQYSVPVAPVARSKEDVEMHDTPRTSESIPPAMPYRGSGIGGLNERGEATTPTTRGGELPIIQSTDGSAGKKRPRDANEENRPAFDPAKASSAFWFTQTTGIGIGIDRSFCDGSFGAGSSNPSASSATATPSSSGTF

With `Nc1ncnc2c1ncn2[C@@H]1O[C@H](COP(=O)(O)OP(=O)(O)OP(=O)(O)O)[C@@H](O)[C@H]1O` [ATP], in data set [1], the “malachite green phosphate release ATPase assay” value is given as “Substrate stimulated ATP hydrolysis of mutant Sen1 proteins was monitored in a phosphate release assay”.
For the molecule UUUUUUUUUUUUUUU (ssRNA) [poly-U 15 nt], the binding result in data set [2] is “binds”.

For the origin of these results see paper PMC10629462 (Molecular cell, 2023).
